Reference: the NIST ThermoML archive (doi:10.1021/je0502849)
Numbers after ± are expanded uncertainties.

Conditions: Liquid, Pulse-echo method

CCCC(C)C [2-methylpentane]
speed of sound [m/s]
Conditions	293.15 K	303.15 K	313.15 K	323.15 K	333.15 K	343.15 K	353.15 K	363.15 K	373.15 K
100 kPa	1064.6 ± 1.6	1016.5 ± 1.5	971.8 ± 1.5	927.3 ± 1.5	–	–	–	–	–
10000 kPa	1145.5 ± 1.5	1102.8 ± 1.5	1061.7 ± 1.5	1022 ± 1.5	982.1 ± 1.5	943.2 ± 1.4	905 ± 1.4	867.4 ± 1.4	830.7 ± 1.4
20000 kPa	1215.4 ± 1.5	1176 ± 1.5	1138.5 ± 1.5	1101.2 ± 1.5	1065.4 ± 1.4	1030.2 ± 1.4	996.4 ± 1.4	962.8 ± 1.4	931.1 ± 1.4
30000 kPa	1277.6 ± 1.5	1240.8 ± 1.5	1205.5 ± 1.5	1170.8 ± 1.4	1137.2 ± 1.4	1104.8 ± 1.4	1073.6 ± 1.4	1042.9 ± 1.4	1013 ± 1.4
40000 kPa	1334.9 ± 1.5	1299.5 ± 1.5	1265.9 ± 1.5	1233.9 ± 1.4	1201.3 ± 1.4	1170.9 ± 1.4	1141 ± 1.4	1112.8 ± 1.4	1084.6 ± 1.4
50000 kPa	1386.9 ± 1.5	1352.6 ± 1.5	1321.2 ± 1.5	1289.9 ± 1.4	1260.2 ± 1.4	1230.4 ± 1.4	1201.8 ± 1.4	1174.7 ± 1.4	1148.2 ± 1.4
60000 kPa	1434.8 ± 1.5	1403 ± 1.5	1372.2 ± 1.5	1342.1 ± 1.5	1313.1 ± 1.4	1284.6 ± 1.4	1257.8 ± 1.4	1231.7 ± 1.4	1206.3 ± 1.4
70000 kPa	1480.4 ± 1.5	1449.6 ± 1.5	1419.4 ± 1.5	1391.6 ± 1.5	1363.4 ± 1.5	1335.3 ± 1.4	1309.7 ± 1.4	1284.1 ± 1.4	1259.6 ± 1.4
80000 kPa	1523.4 ± 1.5	1492.9 ± 1.5	1464 ± 1.5	1436 ± 1.5	1408.6 ± 1.5	1381.8 ± 1.4	1356.7 ± 1.4	1332.7 ± 1.4	1309 ± 1.4
90000 kPa	1564 ± 1.5	1534.6 ± 1.5	1506.3 ± 1.5	1478.4 ± 1.5	1452.5 ± 1.5	1426.6 ± 1.5	1402.3 ± 1.4	1378.4 ± 1.4	1354.6 ± 1.4
100000 kPa	1602.3 ± 1.5	1573.5 ± 1.5	1546.3 ± 1.5	1519.2 ± 1.5	1493.6 ± 1.5	1468.3 ± 1.5	1444.8 ± 1.4	1421.9 ± 1.4	1399 ± 1.4
110000 kPa	1638.5 ± 1.5	1610.7 ± 1.5	1584.2 ± 1.5	1558.7 ± 1.5	1532.6 ± 1.5	1508.4 ± 1.5	1485.1 ± 1.5	1462.6 ± 1.4	1440.8 ± 1.4
120000 kPa	1674.4 ± 1.5	1646.9 ± 1.5	1620.7 ± 1.5	1595.2 ± 1.5	1570 ± 1.5	1546.2 ± 1.5	1523.3 ± 1.5	1501.1 ± 1.5	1479.6 ± 1.5
130000 kPa	1708.1 ± 1.6	1681.6 ± 1.5	1655.7 ± 1.5	1630.8 ± 1.5	1605.9 ± 1.5	1582.5 ± 1.5	1560 ± 1.5	1538.3 ± 1.5	1517.1 ± 1.5
140000 kPa	1740.8 ± 1.6	1714.3 ± 1.6	1689.6 ± 1.5	1664.2 ± 1.5	1640.4 ± 1.5	1617.2 ± 1.5	1595.2 ± 1.5	1573.9 ± 1.5	1553 ± 1.5
150000 kPa	1771.8 ± 1.6	1746.6 ± 1.6	1721.4 ± 1.6	1696.8 ± 1.5	1673 ± 1.5	1650.2 ± 1.5	1628.8 ± 1.5	1607.8 ± 1.5	1587.5 ± 1.5
